Values quoted from earlier work, collected in US20210137911A1, “NOVEL CHRONOTHERAPY BASED ON CIRCADIAN RHYTHMS” (THE TRUSTEES OF THE UNIVERSITY OF PENNSYLVANIA, priority 2014, published 2021).

conditions: half-life of therapeutic compound as listed in Table 1; cited from earlier work

Structure (SMILES) | ½ Life [h]
CCC[C@H](N[C@@H](C)C(=O)N1[C@H](C(=O)O)C[C@@H]2CCCC[C@@H]21)C(=O)OCC [Perindopril] | 1.2
NNCCc1ccccc1 [Phenelzine] | 1.2
O=C1c2ccccc2C(=O)C1c1ccccc1 [Phenindione] | 5
CNC[C@H](O)c1cccc(O)c1 [Phenylephrine] | 2.1
CC[C@@H]1C(=O)OC[C@@H]1Cc1cncn1C [Pilocarpine] | 0.76
CC(C)NCC(O)COc1cccc2[nH]ccc12 (stereo not shown) [Pindolol] | 3
CCc1ccc(CCOc2ccc(CC3SC(=O)NC3=O)cc2)nc1 (stereo not shown) [Pioglitazone] | 3
Cc1ccc(=O)n(-c2ccccc2)c1 [Pirfenidone] | 2
c1cc(CN2CCCNCCNCCCNCC2)ccc1CN1CCCNCCNCCCNCC1 [Plerixafor] | 4.4
COc1cc([C@@H]2c3cc4c(cc3[C@H](O)[C@H]3COC(=O)[C@H]23)OCO4)cc(OC)c1OC [Podofilox] | 1
C[n+]1ccccc1/C=N/O [Pralidoxime] | 1.233
COc1cc(NC(C)CCCN)c2ncccc2c1 (stereo not shown) [Primaquine] | 3.7
CCC1(c2ccccc2)C(=O)NCNC1=O [Primidone] | 3
CCN(CC)CCOC(=O)c1ccc(N)cc1 [Procaine] | 0.1283
NC(=O)CCC/N=C(\c1ccc(Cl)cc1)c1cc(F)ccc1O [Progabide] | 4

same assay, conditions: in vivo; cited from earlier work

Structure (SMILES) | ½ Life [h]
CCOC(=O)C1(c2ccccc2)CCN(C)CC1 [Pethidine] | 1
CC(N)C(O)c1ccccc1 (stereo not shown) [Phenylpropanolamine] | 2.1
CC[C@H](C)[C@H](NC(=O)[C@@H]1CCCN1C(=O)CNC(=O)[C@H](Cc1ccccc1)NC(=O)[C@H](CC(N)=O)NC(=O)[C@H](CC(N)=O)NC(=O)[C@H](CO)NC(=O)[C@H](CO)NC(=O)[C@H](Cc1c[nH]cn1)NC(=O)[C@@H](NC(=O)[C@H](CC(C)C)NC(=O)[C@H](Cc1ccccc1)NC(=O)[C@H](CC(N)=O)NC(=O)[C@H](C)NC(=O)[C@H](CC(C)C)NC(=O)[C@H](CCCNC(=N)N)NC(=O)[C@H](CCC(N)=O)NC(=O)[C@@H](NC(=O)[C@H](C)NC(=O)[C@@H]1CSSC[C@H](NC(=O)[C@@H](N)CCCCN)C(=O)N[C@@H](CC(N)=O)C(=O)N[C@@H]([C@@H](C)O)C(=O)N[C@@H](C)C(=O)N[C@@H]([C@@H](C)O)C(=O)N1)[C@@H](C)O)C(C)C)C(=O)N[C@@H](CC(C)C)C(=O)N1CCC[C@H]1C(=O)N1CCC[C@H]1C(=O)N[C@H](C(=O)N[C@@H](CC(N)=O)C(=O)N[C@H](C(=O)NCC(=O)N[C@@H](CO)C(=O)N[C@@H](CC(N)=O)C(=O)N[C@H](C(=O)N[C@@H](Cc1ccc(O)cc1)C(N)=O)[C@@H](C)O)C(C)C)[C@@H](C)O [Pramlintide] | 0.8
C[C@]12C=CC(=O)C=C1CC[C@@H]1[C@@H]2[C@@H](O)C[C@@]2(C)[C@H]1CC[C@]2(O)C(=O)CO [Prednisolone] | 2
CC(C)c1cccc(C(C)C)c1O [Propofol] | 1
CCCc1cc(=O)[nH]c(=S)[nH]1 [Propylthiouracil] | 2
CN(C)C(=O)Oc1ccc[n+](C)c1 [Pyridostigmine] | 3
CCOC(=O)[C@H](CCc1ccccc1)N[C@@H](C)C(=O)N1Cc2ccccc2C[C@H]1C(=O)O [Quinapril] | 2
COCCCOc1ccnc(C[S+]([O-])c2nc3ccccc3[nH]2)c1C (stereo not shown) [Rabeprazole] | 1
CCC(=O)NCC[C@@H]1CCc2ccc3c(c21)CCO3 [Ramelteon] | 1
CCOC(=O)[C@H](CCc1ccccc1)N[C@@H](C)C(=O)N1[C@H](C(=O)O)C[C@@H]2CCC[C@@H]21 [Ramipril, reference compound] | 2
C#CCN[C@@H]1CCc2ccccc21 [Rasagiline] | 3
CNC(=O)c1cnn(-c2nc(N)c3ncn([C@@H]4O[C@H](CO)[C@@H](O)[C@H]4O)c3n2)c1 [Regadenoson] | 0.033
CCOc1cc(CC(=O)N[C@@H](CC(C)C)c2ccccc2N2CCCCC2)ccc1C(=O)O [Repaglinide] | 1
O=P(O)(O)C(O)(Cc1cccnc1)P(=O)(O)O [Risedronate] | 1.5
CC(NCCc1ccc(O)cc1)C(O)c1ccc(O)cc1 (stereo not shown) [Ritodrine] | 1.7
CCN(C)C(=O)Oc1cccc([C@H](C)N(C)C)c1 [Rivastigmine] | 1.5
CN(C)CCc1c[nH]c2ccc(Cn3cncn3)cc12 [Rizatriptan] | 2
C=CC[N+]1([C@H]2C[C@H]3[C@@H]4CC[C@H]5C[C@H](O)[C@@H](N6CCOCC6)C[C@]5(C)[C@H]4CC[C@]3(C)[C@H]2OC(C)=O)CCCC1 [Rocuronium] | 1
CN(CCOc1ccc(CC2SC(=O)NC2=O)cc1)c1ccccn1 (stereo not shown) [Rosiglitazone] | 3
CCCN(CCc1cccs1)[C@H]1CCc2c(O)cccc2C1 [Rotigotine] | 5
CCCCP(=O)(O)CCCN [SGS742] | 4
OCc1cc(C(O)CNCCCCCCOCCCCc2ccccc2)ccc1O (stereo not shown) [Salmeterol] | 5.5
O=C(Oc1ccccc1C(=O)O)c1ccccc1O [Salsalate] | 1
C#CCN(C)[C@H](C)Cc1ccccc1 [Selegiline] | 1.2
CC(C)CC(N(C)C)C1(c2ccc(Cl)cc2)CCC1 (stereo not shown) [Sibutramine] | 1.1
CC(=O)S[C@@H]1CC2=CC(=O)CC[C@]2(C)[C@H]2CC[C@@]3(C)[C@@H](CC[C@@]34CCC(=O)O4)[C@H]12 [Spironolactone] | 0.166

Structure (SMILES) | ½ Life [h]
CCC1=C(C)c2cc3[n-]c(cc4[n-]c(cc5nc(cc1n2)C(C)=C5CC)c(C)c4CCC(=O)O)c(CCC(=O)O)c3C.[Cl-].[Cl-].[Sn+4] [Stannsoporfin] | 3.8
CN(N=O)C(=O)N[C@@H](C=O)[C@@H](O)[C@H](O)[C@H](O)CO [Streptozocin] | 0.0833
O=C1C(CC[S+]([O-])c2ccccc2)C(=O)N(c2ccccc2)N1c1ccccc1 (stereo not shown) [Sulfinpyrazone] | 4
CNS(=O)(=O)Cc1ccc2[nH]cc(CCN(C)C)c2c1 [Sumatriptan] | 2.5
Nc1c2c(nc3ccccc13)CCCC2 [Tacrine] | 2
CC(=O)N1N=C(c2ccc(N)cc2)c2cc3c(cc2C[C@H]1C)OCO3 [Talampanel] | 3
CCOc1ccccc1OCCN[C@H](C)Cc1ccc(OC)c(S(N)(=O)=O)c1 [Tamsulosin] | 5
CC[C@@H](c1cccc(O)c1)[C@@H](C)CN(C)C [Tapentadol] | 4
COc1cc([C@@H]2c3cc4c(cc3[C@@H](O[C@@H]3O[C@@H]5CO[C@@H](c6cccs6)O[C@H]5[C@H](O)[C@H]3O)[C@H]3COC(=O)[C@H]23)OCO4)cc(OC)c1O [Teniposide] | 5
CC(C)(C)NCC(O)c1cc(O)cc(O)c1 (stereo not shown) [Terbutaline] | 5.5
C[C@]12CC[C@H]3[C@@H](CCC4=CC(=O)CC[C@@]43C)[C@@H]1CC[C@@H]2O [Testosterone] | 0.166
O=C1CCC(N2C(=O)c3ccccc3C2=O)C(=O)N1 (stereo not shown) [Thalidomide] | 5
CCCC(C)C1(CC)C(=O)NC(=S)NC1=O (stereo not shown) [Thiopental] | 3
CC(C(=O)O)c1ccc(C(=O)c2ccccc2)s1 (stereo not shown) [Tiaprofenic acid] | 1.5
CC(C)(C)NC[C@H](O)COc1nsnc1N1CCOCC1 [Timolol] | 2.5
CCCCS(=O)(=O)N[C@@H](Cc1ccc(OCCCCC2CCNCC2)cc1)C(=O)O [Tirofiban] | 2
Clc1ccc2nsnc2c1NC1=NCCN1 [Tizanidine] | 2.5
Cc1ccc(C(=O)c2ccc(CC(=O)O)n2C)cc1 [Tolmetin] | 2
CC[C@@]1(O)C(=O)OCc2c1cc1n(c2=O)Cc2cc3c(CN(C)C)c(O)ccc3nc2-1 [Topotecan] | 2
CC(C)OC(=O)CCC/C=C\C[C@@H]1[C@@H](/C=C/[C@@H](O)COc2cccc(C(F)(F)F)c2)[C@H](O)C[C@@H]1O [Travoprost] | 0.75
O=c1n(CCCN2CCN(c3cccc(Cl)c3)CC2)nc2ccccn12 [Trazodone] | 1
CCCCC[C@H](O)CC[C@@H]1[C@H]2Cc3cccc(OCC(=O)O)c3C[C@H]2C[C@H]1O [Treprostinil] | 2
CC1=C(/C=C/C(C)=C/C=C/C(C)=C/C(=O)O)C(C)(C)CCC1 [Tretinoin] | 0.5
C[C@]12C=CC(=O)C=C1CC[C@H]1[C@@H]3C[C@@H](O)[C@](O)(C(=O)CO)[C@@]3(C)C[C@H](O)[C@@]12F [Triamcinolone] | 1.466
Nc1nc(N)c2nc(-c3ccccc3)c(N)nc2n1 [Triamterene] | 4.25
OC(CCN1CCCCC1)(c1ccccc1)C1CCCCC1 (stereo not shown) [Trihexyphenidyl] | 3.3

same assay, conditions: see Table 1; cited from earlier work

Structure (SMILES) | minimum reported half-life [h] | half-life
CCOC(=O)[C@H](CCc1ccccc1)N[C@@H](C)C(=O)N1[C@H](C(=O)O)C[C@@H]2CCC[C@@H]21 [Ramipril, reference compound] | 2 | –
CCC(C)(C)C(=O)O[C@H]1C[C@@H](C)C=C2C=C[C@H](C)[C@H](CC[C@@H]3C[C@@H](O)CC(=O)O3)[C@H]21 [Simvastatin, reference compound] | – | less than three
